Experimental data published in US20260258049A1, “Molecules and Methods Related to Treatment of Uncontrolled Cellular Proliferation” (ST. JUDE CHILDREN'S RESEARCH HOSPITAL, priority 2019, published 2026).
Read-outs that look alike come from different tables or passages of the source.

What was measured:
[1] = target: T1, GSPT1 (Homo sapiens, UniProt P15170); assay: Immunoblot protein degradation in MHH-CALL-4 cells; format: cell-based
T1 construct: degradation of JAK2 and GSPT1 in MHH-CALL-4 cells; endogenous in cells; host or cells: MHH-CALL-4
T1 sequence (P15170 whole entry): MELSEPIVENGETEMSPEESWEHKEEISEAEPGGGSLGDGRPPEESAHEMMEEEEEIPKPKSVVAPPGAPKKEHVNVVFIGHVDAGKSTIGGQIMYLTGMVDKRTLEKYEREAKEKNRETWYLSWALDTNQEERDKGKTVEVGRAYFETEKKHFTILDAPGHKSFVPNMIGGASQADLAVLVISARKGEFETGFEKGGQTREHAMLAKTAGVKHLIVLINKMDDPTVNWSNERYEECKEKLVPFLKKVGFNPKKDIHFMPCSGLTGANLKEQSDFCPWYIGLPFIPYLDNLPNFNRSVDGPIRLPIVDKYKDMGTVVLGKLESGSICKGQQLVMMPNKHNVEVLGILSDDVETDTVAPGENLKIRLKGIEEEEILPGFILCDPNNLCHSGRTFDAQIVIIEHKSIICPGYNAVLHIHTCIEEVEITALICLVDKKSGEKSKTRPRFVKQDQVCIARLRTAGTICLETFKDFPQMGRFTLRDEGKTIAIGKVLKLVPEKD
Experimental: Cells were washed twice with ice-cold PBS and lysed in RIPA lysis buffer (Sigma) freshly supplemented with Halt™ Protease Inhibitor Cocktail (ThermoFisher) for 15 minutes on ice. The cell pellet was removed by centrifugation at 13,000 g at 4° C. for 15 minutes. Protein concentration was measured by BCA assay (Thermo Fisher Scientific). Proteins were denatured in NuPAGE LDS 4× sample buffer supplemented with reducing agents (Invitrogen). Typically, 10-20 µg of total protein was loaded per lane on a 4%-12% NuPAGE Bis-Tris gradient gel (Invitrogen) and analyzed by standard immunoblotting and imaged using Li-COR Odyssey CLx (LI-COR Biotechnology, Lincoln, NE). Primary antibodies used were: JAKI (Cell Signaling #3332S), JAK2 (#3230S), JAK3 (#8827S), TYK2 (#9312S), GSPT1 (#14980S), CRBN (#71810S), IKZF1 (Santa Cruz Biotechnology, SC-398265) and ACBT (Santa Cruz Biotechnology, SC-47778).

[2] = target: T2, JAK2 (Homo sapiens, UniProt O60674, I682F); assay: Immunoblot protein degradation in MHH-CALL-4 cells; format: cell-based
T2 construct: degradation of JAK2 and GSPT1 in MHH-CALL-4 cells; endogenous in cells; host or cells: MHH-CALL-4
T2 sequence (O60674 whole entry I682F): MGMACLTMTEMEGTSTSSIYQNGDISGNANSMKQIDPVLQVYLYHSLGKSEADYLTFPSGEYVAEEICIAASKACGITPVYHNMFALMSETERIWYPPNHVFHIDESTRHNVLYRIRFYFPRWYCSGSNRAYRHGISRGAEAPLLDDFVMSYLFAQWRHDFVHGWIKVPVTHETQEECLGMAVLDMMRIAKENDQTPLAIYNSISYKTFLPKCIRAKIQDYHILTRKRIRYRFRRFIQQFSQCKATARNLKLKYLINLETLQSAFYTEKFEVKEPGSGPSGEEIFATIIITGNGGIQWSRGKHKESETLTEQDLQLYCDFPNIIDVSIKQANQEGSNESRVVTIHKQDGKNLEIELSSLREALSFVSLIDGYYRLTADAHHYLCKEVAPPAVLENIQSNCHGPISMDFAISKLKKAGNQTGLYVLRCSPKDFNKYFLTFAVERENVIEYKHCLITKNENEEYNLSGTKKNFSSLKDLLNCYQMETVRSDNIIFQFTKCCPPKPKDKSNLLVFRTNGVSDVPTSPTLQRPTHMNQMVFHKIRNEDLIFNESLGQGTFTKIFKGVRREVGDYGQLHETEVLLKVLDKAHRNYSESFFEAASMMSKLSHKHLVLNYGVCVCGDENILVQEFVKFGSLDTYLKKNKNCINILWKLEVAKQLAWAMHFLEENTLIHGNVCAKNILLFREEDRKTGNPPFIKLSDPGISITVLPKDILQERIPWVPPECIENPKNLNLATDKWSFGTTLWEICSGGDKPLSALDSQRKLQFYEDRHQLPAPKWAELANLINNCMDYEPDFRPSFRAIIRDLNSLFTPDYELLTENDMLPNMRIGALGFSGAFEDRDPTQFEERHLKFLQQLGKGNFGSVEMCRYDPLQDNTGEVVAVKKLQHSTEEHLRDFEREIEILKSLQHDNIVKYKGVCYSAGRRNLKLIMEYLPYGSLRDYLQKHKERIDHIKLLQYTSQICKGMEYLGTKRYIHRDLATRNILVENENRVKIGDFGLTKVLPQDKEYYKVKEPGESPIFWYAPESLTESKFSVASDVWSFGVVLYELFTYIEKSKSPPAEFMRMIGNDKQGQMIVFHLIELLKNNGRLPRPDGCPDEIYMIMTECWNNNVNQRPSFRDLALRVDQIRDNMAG

[3] = system: MHH-CALL-4; assay: Cytotoxicity assay (resazurin, 72 hours); format: cell-based, human
[4] = system: Human CD45+ leukemic cells purified from patient derived xenografts (PDX)
[5] = system: JAK-STAT5 signaling pathway; assay: Phosphoflow analysis in MHH-CALL-4 cells with or without TSLP; format: cell-based, human; conditions: 1 μM, one hour before TSLP 25 ng/mL for 30 minutes
[6] = system: Caco-2 cells; assay: Caco-2 cell permeability; format: in vitro ADME
Experimental: Compound Caco-2 cell permeability was determined using the Transwell® 0.4 μm polycarbonate membrane 96-well as described before (Uchida, et al. (2009) J Pharmacol Toxicol Methods 59(1): 39-43). Briefly, Caco-2 cells monolayers were incubated over 2 hours at 37° C. Fractions were collected from receivers (basal side, B), and concentrations were assessed by UPLC/MS (Waters; Milford, MA). All compounds were tested in triplicates. The A→B (or B→A) apparent permeability coefficients (Papp) of each compound were calculated using the equation, Papp=dQ/dt×1/AC0, where dQ/dt equals the flux of a drug across the monolayer, A equals the total insert well surface area, and CO is the initial concentration of substrate in the donor compartment.

SMILES | extent of degradation of GSPT1 [1] | extent of degradation of JAK2 [2] | killing of MHH-CALL-4 cells / cytotoxicity, in words [3] | cytotoxicity in PDX cells ex vivo [4] | other results
CC(=O)NCCCNC(=O)COc1cccc2c1C(=O)N(C1CCC(=O)NC1=O)C2=O (stereo not shown) [Cmpd. no. 59] | minimal activity on either target | minimal activity on either target | relatively low activity | – | –
CNCCCCNc1ccc2c(c1)C(=O)N(C1CCC(=O)NC1=O)C2=O (stereo not shown) [Cmpd. no. 80] | minimal activity on either target | minimal activity on either target | relatively low activity | – | –
CC(=O)Nc1cc(Oc2ccc3c(nc(Nc4ccc(F)cc4F)n3C)c2C)ccn1 [CHZ868, reference compound] | – | – | – | not | –
CNCCCN1CCN(c2ccc3c(c2)C(=O)N(C2CCC(=O)NC2=O)C3=O)CC1 (stereo not shown) [Cmpd. no. 56] | – | preferential | intermediately effective | – | –
CCS(=O)(=O)N1CC(CC#N)(n2cc(-c3nc(Nc4ccc(C(=O)NCCN5CCN(c6ccc7c(c6)C(=O)N(C6CCC(=O)NC6=O)C7=O)CC5)cc4)nc4[nH]ccc34)cn2)C1 (stereo not shown) [Compound 8] | – | – | intermediately effective | – | killing of MHH-CALL-4 cells / cytotoxicity, in words ([3]; listed as compound 8): reduced activity
N#CC[C@H](C1CCCC1)n1cc(-c2ncnc3[nH]ccc23)cn1 [Ruxolitinib, reference compound] | – | – | – | – | EC50 ([3]; Homo sapiens, MHHCALL4, read-out: HHCALL4 (nM), MHHCALL4 EC50): 5800 nM
N#CC[C@H](C1CCCC1)n1cc(-c2nc(Nc3ccc(C(=O)NCCCCNc4cccc5c4C(=O)N(C4CCC(=O)NC4=O)C5=O)cc3)nc3[nH]ccc23)cn1 (stereo partly shown) [Compound 5] | degradation of GSPT1 was observed | – | – | show cytotoxicity | JAK inhibition (phosphoflow) [5]: comparable JAK inhibition; EC50 ([3]; Homo sapiens, MHHCALL4, Table 6, no star, read-out: HHCALL4 (nM), MHHCALL4 EC50): 784 nM
CCCn1cc(-c2nc(Nc3ccc(C(=O)NCCCCNc4cccc5c4C(=O)N(C4CCC(=O)NC4=O)C5=O)cc3)nc3[nH]ccc23)cn1 (stereo not shown) [SJ000988497] | – | – | – | – | Papp, Caco-2 assay [6]: 1.912 ×10⁻⁶ cm/s
CCS(=O)(=O)N1CC(CC#N)(n2cc(-c3nc(Nc4ccc(C(=O)NCCCCNc5cccc6c5C(=O)N(C5CCC(=O)NC5=O)C6=O)cc4)nc4[nH]ccc34)cn2)C1 (stereo not shown) [Compound 6] | – | – | – | show cytotoxicity | JAK inhibition (phosphoflow) [5]: comparable JAK inhibition; EC50 ([3]; Table 6, no star, read-out: HHCALL4 (nM), MHHCALL4 EC50): 1.52 nM
CC(=O)NCCCNc1ccc2c(c1)C(=O)N(C1CCC(=O)NC1=O)C2=O (stereo not shown) [Cmpd. no. 53] | preferential | – | intermediately effective | – | –
